# Laboratory results: publication PMC6081459, “Pathogen-derived HLA-E bound epitopes reveal broad primary anchor pocket tolerability and conformationally malleable peptide binding” (Nature Communications, 2018)
# Columns and labels:
# [1] = test system: Mamu-E restricted CD8^+ T cells; assay type: cell-based, rhesus macaques (Macaca mulatta)
# [2] = target: HLA-E*01:03 (Homo sapiens, UniProt P13747); assay: Single-chain peptide-β2m-HC construct, HLA-E surface expression in transfected 293T cells; assay type: cell-based; conditions: peptide encoded in single-chain peptide-β2M-HC construct, 24 h after transfection, flow cytometry, scaled to index position 2 residue, n = 4
Sequence,Magnitude of CD8+ T cell responses to Mtb44 and position 2 variants [1],"Relative HLA-E surface expression (MFI, 3D12 antibody) [2]"
RFPAKAPLL [Mtb44*P2-Phe],responses of similar magnitude,highest relative levels of HLA-E surface expression
RLPAKAPLL [Mtb44],responses of similar magnitude,–
RQPAKAPLL [Mtb44*P2-Gln],responses of similar magnitude,–
